Assays:
[1] = test system: Tyrosine-protein kinase ABL1 (Homo sapiens), P00519 [F317I]; details: Compound concentration 100.0 nM
[2] = test system: Tyrosine-protein kinase ABL1 (Homo sapiens), P00519 [T315I]; details: Compound concentration 100.0 nM
[3] = target: Atypical kinase COQ8B, mitochondrial (Homo sapiens) (UniProt Q96D53); details: Compound concentration 100.0 nM
[4] = target: RAC-gamma serine/threonine-protein kinase (Homo sapiens) (UniProt Q9Y243); details: Compound concentration 100.0 nM
[5] = target: 5'-AMP-activated protein kinase catalytic subunit alpha-1 (Homo sapiens) (UniProt Q13131); details: Compound concentration 100.0 nM
[6] = target: Tyrosine-protein kinase receptor UFO (Homo sapiens) (UniProt P30530); details: Compound concentration 100.0 nM
[7] = target: Serine/threonine-protein kinase BRSK1 (Homo sapiens) (UniProt Q8TDC3); details: Compound concentration 100.0 nM
[8] = target: Casein kinase I isoform epsilon (Homo sapiens) (UniProt P49674); details: Compound concentration 100.0 nM
[9] = target: Serine/threonine-protein kinase DCLK2 (Homo sapiens) (UniProt Q8N568); details: Compound concentration 100.0 nM
[10] = target: Dual specificity tyrosine-phosphorylation-regulated kinase 1A (Homo sapiens) (UniProt Q13627); details: Compound concentration 100.0 nM
[11] = test system: Epidermal growth factor receptor (Homo sapiens), P00533 [G719C]; details: Compound concentration 100.0 nM
[12] = target: Eukaryotic translation initiation factor 2-alpha kinase 1 (Homo sapiens) (UniProt Q9BQI3); details: Compound concentration 100.0 nM
[13] = target: Ephrin type-B receptor 2 (Homo sapiens) (UniProt P29323); details: Compound concentration 100.0 nM
[14] = target: Ephrin type-B receptor 3 (Homo sapiens) (UniProt P54753); details: Compound concentration 100.0 nM
[15] = test system: Receptor-type tyrosine-protein kinase FLT3 (Homo sapiens), P36888 [K663Q]; details: Compound concentration 100.0 nM
[16] = target: Cyclin-G-associated kinase (Homo sapiens) (UniProt O14976); details: Compound concentration 100.0 nM
[17] = target: Tyrosine-protein kinase HCK (Homo sapiens) (UniProt P08631); details: Compound concentration 100.0 nM
[18] = target: Inhibitor of nuclear factor kappa-B kinase subunit alpha (Homo sapiens) (UniProt O15111); details: Compound concentration 100.0 nM
[19] = target: Inhibitor of nuclear factor kappa-B kinase subunit epsilon (Homo sapiens) (UniProt Q14164); details: Compound concentration 100.0 nM
[20] = test system: Mast/stem cell growth factor receptor Kit (Homo sapiens), P10721 [D816H]; details: Compound concentration 100.0 nM
[21] = test system: Mast/stem cell growth factor receptor Kit (Homo sapiens), P10721 [L576P]; details: Compound concentration 100.0 nM
[22] = target: LIM domain kinase 2 (Homo sapiens) (UniProt P53671); details: Compound concentration 100.0 nM
[23] = target: MAP/microtubule affinity-regulating kinase 3 (Homo sapiens) (UniProt P27448); details: Compound concentration 100.0 nM
[24] = target: Mitogen-activated protein kinase kinase kinase 9 (Homo sapiens) (UniProt P80192); details: Compound concentration 100.0 nM
[25] = target: Serine/threonine-protein kinase 26 (Homo sapiens) (UniProt Q9P289); details: Compound concentration 100.0 nM
[26] = target: Myosin light chain kinase 2, skeletal/cardiac muscle (Homo sapiens) (UniProt Q9H1R3); details: Compound concentration 100.0 nM
[27] = target: Serine/threonine-protein kinase Nek4 (Homo sapiens) (UniProt P51957); details: Compound concentration 100.0 nM
[28] = target: Serine/threonine-protein kinase Nek6 (Homo sapiens) (UniProt Q9HC98); details: Compound concentration 100.0 nM
[29] = target: Serine/threonine-protein kinase NIM1 (Homo sapiens) (UniProt Q8IY84); details: Compound concentration 100.0 nM
[30] = target: Cyclin-dependent kinase 18 (Homo sapiens) (UniProt Q07002); details: Compound concentration 100.0 nM
[31] = target: Cyclin-dependent kinase 2 homolog (Plasmodium falciparum (isolate 3D7)) (UniProt P61075); details: Compound concentration 100.0 nM
[32] = target: Cyclin-dependent kinase 15 (Homo sapiens) (UniProt Q96Q40); details: Compound concentration 100.0 nM
[33] = target: Phosphatidylinositol 4,5-bisphosphate 3-kinase catalytic subunit alpha isoform (Homo sapiens) (UniProt P42336); details: Compound concentration 100.0 nM
[34] = target: Serine/threonine-protein kinase pim-2 (Homo sapiens) (UniProt Q9P1W9); details: Compound concentration 100.0 nM
[35] = target: Protein kinase C eta type (Homo sapiens) (UniProt P24723); details: Compound concentration 100.0 nM
[36] = target: Protein kinase C theta type (Homo sapiens) (UniProt Q04759); details: Compound concentration 100.0 nM
[37] = target: Serine/threonine-protein kinase D3 (Homo sapiens) (UniProt O94806); details: Compound concentration 100.0 nM
[38] = target: Serine/threonine-protein kinase RIO2 (Homo sapiens) (UniProt Q9BVS4); details: Compound concentration 100.0 nM
[39] = target: Receptor-interacting serine/threonine-protein kinase 4 (Homo sapiens) (UniProt P57078); details: Compound concentration 100.0 nM
[40] = target: Serine/threonine-protein kinase SBK1 (Homo sapiens) (UniProt Q52WX2); details: Compound concentration 100.0 nM
[41] = target: Tyrosine-protein kinase SYK (Homo sapiens, UniProt P43405); details: Compound concentration 100.0 nM
[42] = target: TRAF2 and NCK-interacting protein kinase (Homo sapiens) (UniProt Q9UKE5); details: Compound concentration 100.0 nM
[43] = target: Serine/threonine-protein kinase 32C (Homo sapiens) (UniProt Q86UX6); details: Compound concentration 100.0 nM
[44] = target: Alpha-2C adrenergic receptor (Homo sapiens) (UniProt P18825); details: Compound concentration 10.0 uM
[45] = target: Muscarinic acetylcholine receptor M5 (Homo sapiens) (UniProt P08912); details: Compound concentration 10.0 uM
Muscarinic acetylcholine receptor M5 (Homo sapiens), sequence (P08912 whole entry): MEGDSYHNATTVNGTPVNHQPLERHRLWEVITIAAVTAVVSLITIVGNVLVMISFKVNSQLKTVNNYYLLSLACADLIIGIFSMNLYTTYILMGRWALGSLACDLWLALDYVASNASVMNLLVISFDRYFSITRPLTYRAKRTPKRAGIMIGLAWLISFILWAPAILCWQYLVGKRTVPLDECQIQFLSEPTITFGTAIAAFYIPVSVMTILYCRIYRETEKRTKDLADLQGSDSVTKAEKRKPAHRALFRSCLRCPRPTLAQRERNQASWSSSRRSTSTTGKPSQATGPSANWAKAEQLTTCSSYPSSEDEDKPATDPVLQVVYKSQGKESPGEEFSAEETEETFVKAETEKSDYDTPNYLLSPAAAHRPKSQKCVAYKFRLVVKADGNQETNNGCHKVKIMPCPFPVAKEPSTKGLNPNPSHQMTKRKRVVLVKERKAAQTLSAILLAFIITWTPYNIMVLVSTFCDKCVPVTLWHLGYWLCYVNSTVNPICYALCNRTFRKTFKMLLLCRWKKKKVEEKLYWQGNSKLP

Casein kinase I isoform epsilon (Homo sapiens), sequence (P49674 whole entry, looked up, canonical isoform): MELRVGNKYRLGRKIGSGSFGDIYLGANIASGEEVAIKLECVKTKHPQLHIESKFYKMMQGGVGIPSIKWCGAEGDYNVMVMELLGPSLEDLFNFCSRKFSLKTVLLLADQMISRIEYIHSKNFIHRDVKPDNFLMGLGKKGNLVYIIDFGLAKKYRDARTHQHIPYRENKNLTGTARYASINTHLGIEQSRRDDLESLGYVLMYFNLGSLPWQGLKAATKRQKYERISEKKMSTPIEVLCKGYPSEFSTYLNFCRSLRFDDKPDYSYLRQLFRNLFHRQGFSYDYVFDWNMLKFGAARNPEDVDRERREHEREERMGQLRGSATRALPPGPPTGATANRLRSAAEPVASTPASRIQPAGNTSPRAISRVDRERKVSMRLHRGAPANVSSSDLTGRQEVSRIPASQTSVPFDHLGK
Serine/threonine-protein kinase RIO2 (Homo sapiens), sequence (Q9BVS4 whole entry, looked up): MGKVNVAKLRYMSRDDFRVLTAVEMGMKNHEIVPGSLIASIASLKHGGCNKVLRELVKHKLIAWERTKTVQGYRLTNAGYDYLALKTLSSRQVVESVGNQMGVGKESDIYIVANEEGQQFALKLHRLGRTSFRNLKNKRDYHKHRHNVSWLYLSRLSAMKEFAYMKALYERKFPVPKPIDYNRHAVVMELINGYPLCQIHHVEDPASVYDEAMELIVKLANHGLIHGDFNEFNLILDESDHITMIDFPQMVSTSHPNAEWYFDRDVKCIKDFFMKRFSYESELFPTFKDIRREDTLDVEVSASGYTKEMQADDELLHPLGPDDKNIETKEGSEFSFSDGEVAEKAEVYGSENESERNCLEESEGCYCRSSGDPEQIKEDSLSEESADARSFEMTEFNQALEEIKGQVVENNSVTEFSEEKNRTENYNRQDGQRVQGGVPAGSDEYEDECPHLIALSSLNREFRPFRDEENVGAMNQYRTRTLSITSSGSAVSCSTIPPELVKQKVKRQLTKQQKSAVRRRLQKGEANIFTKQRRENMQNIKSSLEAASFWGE
Cyclin-dependent kinase 15 (Homo sapiens), sequence (Q96Q40 whole entry, canonical isoform): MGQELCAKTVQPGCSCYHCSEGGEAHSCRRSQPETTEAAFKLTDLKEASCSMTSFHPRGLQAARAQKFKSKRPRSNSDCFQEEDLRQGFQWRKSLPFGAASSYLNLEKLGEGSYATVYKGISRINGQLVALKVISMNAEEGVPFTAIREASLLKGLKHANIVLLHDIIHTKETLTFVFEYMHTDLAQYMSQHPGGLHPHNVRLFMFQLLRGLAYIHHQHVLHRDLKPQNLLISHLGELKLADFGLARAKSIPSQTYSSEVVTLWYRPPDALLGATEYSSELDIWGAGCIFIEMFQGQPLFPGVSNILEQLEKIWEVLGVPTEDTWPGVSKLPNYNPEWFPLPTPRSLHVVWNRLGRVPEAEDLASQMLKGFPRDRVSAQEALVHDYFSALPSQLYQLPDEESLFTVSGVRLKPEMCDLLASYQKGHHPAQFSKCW
Serine/threonine-protein kinase SBK1 (Homo sapiens), sequence (Q52WX2 whole entry): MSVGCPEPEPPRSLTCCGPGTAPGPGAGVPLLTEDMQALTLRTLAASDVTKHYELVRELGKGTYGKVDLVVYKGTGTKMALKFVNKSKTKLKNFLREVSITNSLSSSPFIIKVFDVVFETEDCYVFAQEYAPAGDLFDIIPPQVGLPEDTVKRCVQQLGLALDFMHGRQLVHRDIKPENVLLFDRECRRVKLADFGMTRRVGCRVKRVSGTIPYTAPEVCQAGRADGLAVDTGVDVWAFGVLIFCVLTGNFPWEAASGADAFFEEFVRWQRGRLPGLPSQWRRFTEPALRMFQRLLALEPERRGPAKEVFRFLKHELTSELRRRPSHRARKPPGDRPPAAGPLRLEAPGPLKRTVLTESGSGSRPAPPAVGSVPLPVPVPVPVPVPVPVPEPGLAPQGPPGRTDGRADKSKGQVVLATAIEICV
Serine/threonine-protein kinase Nek6 (Homo sapiens), sequence (Q9HC98 whole entry): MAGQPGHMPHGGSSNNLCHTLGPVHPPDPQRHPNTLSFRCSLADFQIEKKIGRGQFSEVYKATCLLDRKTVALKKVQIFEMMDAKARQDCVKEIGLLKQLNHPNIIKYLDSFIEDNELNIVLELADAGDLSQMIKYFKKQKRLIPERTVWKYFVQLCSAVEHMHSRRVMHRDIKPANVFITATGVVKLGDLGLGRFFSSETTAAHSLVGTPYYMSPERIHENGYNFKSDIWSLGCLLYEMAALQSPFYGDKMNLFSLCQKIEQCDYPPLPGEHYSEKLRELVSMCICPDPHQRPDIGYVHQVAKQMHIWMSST
Tyrosine-protein kinase receptor UFO (Homo sapiens), sequence (P30530 whole entry): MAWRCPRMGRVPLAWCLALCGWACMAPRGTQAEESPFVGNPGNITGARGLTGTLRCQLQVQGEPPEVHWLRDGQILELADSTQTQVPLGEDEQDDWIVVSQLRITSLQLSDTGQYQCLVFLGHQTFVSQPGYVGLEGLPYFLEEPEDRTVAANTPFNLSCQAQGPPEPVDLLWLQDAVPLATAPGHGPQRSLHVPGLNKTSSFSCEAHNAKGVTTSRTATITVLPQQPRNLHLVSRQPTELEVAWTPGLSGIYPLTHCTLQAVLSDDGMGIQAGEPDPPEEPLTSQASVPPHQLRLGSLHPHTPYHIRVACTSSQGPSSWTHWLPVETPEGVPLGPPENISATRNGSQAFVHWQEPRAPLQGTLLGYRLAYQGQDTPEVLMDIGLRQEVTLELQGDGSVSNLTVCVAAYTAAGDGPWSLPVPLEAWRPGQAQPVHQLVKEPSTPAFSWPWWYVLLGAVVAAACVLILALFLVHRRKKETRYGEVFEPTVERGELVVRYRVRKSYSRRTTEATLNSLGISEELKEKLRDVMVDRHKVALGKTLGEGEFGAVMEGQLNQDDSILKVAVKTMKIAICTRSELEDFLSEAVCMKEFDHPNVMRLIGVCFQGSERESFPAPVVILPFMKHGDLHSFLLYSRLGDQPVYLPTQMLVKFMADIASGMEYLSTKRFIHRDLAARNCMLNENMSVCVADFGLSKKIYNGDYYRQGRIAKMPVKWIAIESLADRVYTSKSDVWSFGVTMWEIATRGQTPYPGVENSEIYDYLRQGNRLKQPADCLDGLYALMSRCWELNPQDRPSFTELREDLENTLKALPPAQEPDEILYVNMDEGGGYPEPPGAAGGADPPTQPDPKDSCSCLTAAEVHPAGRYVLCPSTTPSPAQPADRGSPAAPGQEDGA
Eukaryotic translation initiation factor 2-alpha kinase 1 (Homo sapiens), sequence (Q9BQI3 whole entry): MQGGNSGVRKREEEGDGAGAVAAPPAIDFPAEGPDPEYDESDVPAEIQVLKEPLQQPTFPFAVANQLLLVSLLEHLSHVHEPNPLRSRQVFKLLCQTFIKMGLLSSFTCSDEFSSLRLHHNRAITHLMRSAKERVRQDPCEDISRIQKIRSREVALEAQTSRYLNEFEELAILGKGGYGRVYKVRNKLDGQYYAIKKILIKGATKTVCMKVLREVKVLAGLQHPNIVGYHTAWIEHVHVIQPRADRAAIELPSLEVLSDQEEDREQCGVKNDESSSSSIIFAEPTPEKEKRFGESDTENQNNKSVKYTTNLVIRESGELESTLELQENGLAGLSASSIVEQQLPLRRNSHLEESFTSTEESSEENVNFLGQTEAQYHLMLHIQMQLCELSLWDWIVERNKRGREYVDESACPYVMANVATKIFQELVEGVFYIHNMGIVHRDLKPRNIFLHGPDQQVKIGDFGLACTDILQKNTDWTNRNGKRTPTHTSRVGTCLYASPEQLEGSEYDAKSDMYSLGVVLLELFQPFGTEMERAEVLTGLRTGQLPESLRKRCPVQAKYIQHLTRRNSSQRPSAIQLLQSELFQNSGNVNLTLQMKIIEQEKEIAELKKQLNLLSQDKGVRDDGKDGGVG
Serine/threonine-protein kinase DCLK2 (Homo sapiens), sequence (Q8N568 whole entry): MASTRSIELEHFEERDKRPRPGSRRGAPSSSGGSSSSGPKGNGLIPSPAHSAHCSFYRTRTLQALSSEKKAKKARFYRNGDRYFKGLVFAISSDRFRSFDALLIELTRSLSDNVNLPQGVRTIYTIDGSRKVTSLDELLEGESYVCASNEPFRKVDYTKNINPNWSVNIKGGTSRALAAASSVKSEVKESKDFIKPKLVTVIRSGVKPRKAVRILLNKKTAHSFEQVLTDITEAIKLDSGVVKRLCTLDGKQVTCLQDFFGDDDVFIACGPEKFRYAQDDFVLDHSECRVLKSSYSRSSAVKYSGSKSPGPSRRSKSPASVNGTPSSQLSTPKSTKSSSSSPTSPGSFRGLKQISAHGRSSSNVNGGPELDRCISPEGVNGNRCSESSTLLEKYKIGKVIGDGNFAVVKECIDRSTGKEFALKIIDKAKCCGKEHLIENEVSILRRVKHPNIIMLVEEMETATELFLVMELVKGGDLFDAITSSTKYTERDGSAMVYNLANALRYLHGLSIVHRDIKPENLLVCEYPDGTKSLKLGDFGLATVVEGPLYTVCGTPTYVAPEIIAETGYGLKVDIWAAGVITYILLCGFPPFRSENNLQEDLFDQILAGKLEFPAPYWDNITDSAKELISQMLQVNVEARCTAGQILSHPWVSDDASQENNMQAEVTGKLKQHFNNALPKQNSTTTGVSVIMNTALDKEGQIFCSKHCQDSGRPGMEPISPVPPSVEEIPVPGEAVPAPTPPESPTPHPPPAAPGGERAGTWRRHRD

SMILES: Cc1ccc(-c2cnc([C@@]3(O)CC[C@H](C(=O)O)C(C)(C)C3)s2)cc1Nc1cccc(C(F)(F)F)n1 [MRL-SYKi-NC]
- residual activity [1]: 80.1%
- residual activity [2]: 100%
- residual activity [3]: 98.7%
- residual activity [4]: 82.8%
- residual activity [5]: 77.6%
- residual activity [6]: 100%
- residual activity [7]: 100%
- residual activity [8]: 87.6%
- residual activity [9]: 100%
- residual activity [10]: 81.4%
- residual activity [11]: 100%
- residual activity [12]: 83.4%
- residual activity [13]: 100%
- residual activity [14]: 100%
- residual activity [15]: 100%
- residual activity [16]: 100%
- residual activity [17]: 71.9%
- residual activity [18]: 69.7%
- residual activity [19]: 73.8%
- residual activity [20]: 61.4%
- residual activity [21]: 100%
- residual activity [22]: 100%
- residual activity [23]: 100%
- residual activity [24]: 100%
- residual activity [25]: 100%
- residual activity [26]: 90.9%
- residual activity [27]: 84%
- residual activity [28]: 89.7%
- residual activity [29]: 100%
- residual activity [30]: 100%
- residual activity [31]: 33%
- residual activity [32]: 89.7%
- residual activity [33]: 86.9%
- residual activity [34]: 87.9%
- residual activity [35]: 74.6%
- residual activity [36]: 100%
- residual activity [37]: 100%
- residual activity [38]: 100%
- residual activity [39]: 92.8%
- residual activity [40]: 51.1%
- residual activity [41]: 90%
- residual activity [42]: 75.8%
- residual activity [43]: 100%
- inhibition [44]: 11.8%
- inhibition [45]: -4.28%

SMILES: Cc1cc(Nc2nccc(C)n2)cc(-c2cnc([C@@]3(O)CC[C@H](C(=O)O)C(C)(C)C3)s2)c1 [MRL-SYKi]
- residual activity [1]: 100%
- residual activity [2]: 100%
- residual activity [3]: 99.4%
- residual activity [4]: 100%
- residual activity [5]: 100%
- residual activity [6]: 100%
- residual activity [7]: 100%
- residual activity [8]: 100%
- residual activity [9]: 90.1%
- residual activity [10]: 100%
- residual activity [11]: 100%
- residual activity [12]: 100%
- residual activity [13]: 100%
- residual activity [14]: 100%
- residual activity [15]: 82.1%
- residual activity [16]: 100%
- residual activity [17]: 83.3%
- residual activity [18]: 100%
- residual activity [19]: 100%
- residual activity [20]: 97.7%
- residual activity [21]: 85.1%
- residual activity [22]: 87.2%
- residual activity [23]: 100%
- residual activity [24]: 90.4%
- residual activity [25]: 100%
- residual activity [26]: 100%
- residual activity [27]: 96.6%
- residual activity [28]: 100%
- residual activity [29]: 100%
- residual activity [30]: 100%
- residual activity [31]: 100%
- residual activity [32]: 100%
- residual activity [33]: 100%
- residual activity [34]: 100%
- residual activity [35]: 97.5%
- residual activity [36]: 39.9%
- residual activity [37]: 100%
- residual activity [38]: 83.9%
- residual activity [39]: 91.9%
- residual activity [40]: 100%
- residual activity [41]: 0.9%
- residual activity [42]: 100%
- residual activity [43]: 85.9%
- inhibition [44]: -3.94%
- inhibition [45]: 0.943%
